# Measurements reported in patent US20090203526A1, “METHOD OF CONTROLLING UNWANTED VEGETATION” (Arysta LifeScience North America, LLC, priority 2008, published 2009).
# Legend:
# Type in all cases: in vivo
# Conditions in all cases: Site No. 1 (control site; g active/ha): Pre-emergent Glyphosate 450, Ammonium sulphate 1.12 kg/ha
# [1] = test system: Bromus secalinus; test: Example 7 field sites: visual % control of Cheat (Bromus secalinus)
# Method: (§1) Another study was conducted to test various application methods using flucarbazone-sodium (PREPARE) in a pre-emergent application followed by post-emergent application with propoxycarbazone (OLYMPUS®), pyroxsulam (Simplicity®), sulfosulfuron ([…]®), pinoxaden (AXIAL™ XL) and flucarbazone-sodium (EVEREST®) to control Bromus secalinus and Foxtail Barley.
# (§2) To better evaluate the ability of each treatment scheme in controlling unwanted vegetation in a planting site, a group of nearly identical crop planting sites (Site 1-Site 10) were subjected to different treatment schemes. Again, Site No. 1 was a control site. Sites No. 2-Sites No. 10 were treated with either a pre-emergent treatment or sequential pre-emergent and post-emergent treatment schemes. Treatment rates were based on the recommended lower rate provided on the product label (grams of active ingredient per hectare). […]
# (§3) Site No. 1 was not treated with a pre-emergent treatment or a post-emergent treatment, allowing Bromus secalinus and Foxtail Barley to emerge either with the crop or after crop emergence. […] Thus, percent control for Bromus secalinus and Foxtail Barley were evaluated as the weed-free area in the particular site in comparison to the completely weed covered Site No. 1. […]
# [2] = test system: Foxtail Barley; test: Example 7 field sites: visual % control of Foxtail Barley
# Method: as §1, §2, §3
# [3] = test system: Wild Oat; test: Example 8 field sites: visual % control of Wild Oat
# Method: as §1, with “(PrePare)” for “(PREPARE)”, “(SIMPLICITY®),” for “(Simplicity®),”, “Wild Oat.” for “Bromus secalinus and Foxtail Barley.”
# as §2, with “schemes.” for “schemes. Again,”, “was again” for “was”, “site and sites” for “site. Sites”, “varying” for “either a pre-emergent treatment or sequential pre-emergent and post-emergent”, “Again, the treatment” for “Treatment”
# Site No. 1 was not treated with a pre-emergent application or post-emergent application of herbicidally active compounds, allowing Wild Oat to emerge either with the crop or after crop emergence. […] Thus, percent control for Wild Oat was evaluated as the weed-free area in the particular site in comparison to the completely weed covered Site No. 1. Further, the respective crop yield for each crop planting site was also recorded. […]
# [4] = test system: Wild Oat; test: Example 6 field sites: visual % control of wild oat
# Method: A study was conducted to test various application methods using flucarbazone-sodium (PREPARE) in a pre-emergent application followed by post-emergent application with clodinafop (DISCOVER® NG), pinoxaden (AXIAL™ XL) and flucarbazone-sodium (EVEREST®) for control of wild oat.
# To better evaluate the ability of each treatment scheme in controlling unwanted vegetation in a planting site, a group of nearly identical crop planting sites (Site 1-Site 7) were subjected to different treatment schemes. Site No. 1 was to act as a control site and Site No. 2-Sites No. 7 were treated with a pre-emergent treatment or sequential pre-emergent and post-emergent treatment schemes. Treatment rates were based on the recommended rate provided on the product label (grams of active ingredient per hectare). Since the label provides a range, the rate applied is based on the lower recommended rate from the label range. […]
# Site No. 1 was not treated with a pre-emergent or a post-emergent application of a herbicidally active compound according to embodiments of the present invention, allowing wild oat to emerge either with the crop or after crop emergence. […] Thus, percent control for wild oat was evaluated as the weed-free area in the particular site in comparison to the completely weed covered Site No. 1. […]
# [5] = test system: crop
# Method: Site No. 1 was again a control site and sites No. 2-Sites No. 10 were treated with varying treatment schemes. […] In all sites, any pre-existing weeds that germinated and grew to cover the sites were removed with glyphosate to ensure a more accurate determination of the viability of each treatment scheme. For Site No. 2-Site No. 10, glyphosate was tank-mixed with PREPARE and applied to each site prior to the emergence of the desired crop.
# The remaining sites were allowed the same amount of time for weed growth and were visually compared to crop planting site (Site No. 1). […] Further, the respective crop yield for each crop planting site was also recorded.
# Ammonium sulphate is a commercially available fertilizer blend used as an adjuvant to improve performance of glyphosate.
smiles,measurement,setting,value
"O=C(O)CNCP(=O)(O)O [Glyphosate, glyphosate]",% Control of Cheat (Bromus secalinus) at 86 days after application,[1],5%
same,% Control of Foxtail Barley at 86 days after application,[2],0%
same,% Control of Wild Oat at 86 days after application,[3],27%
same,% Control of Wild Oat at 89 days after application,[4],0%
same,Crop Yield,[5],20.1 Bu./Acre
